Reference: publication PMC11106742, “Computational Design of Cyclic Peptide Inhibitors of a Bacterial Membrane Lipoprotein Peptidase” (ACS Chemical Biology, 2024)
Bridge positions count the residues as written; N and C are the ends. Square brackets hold non-standard residues; d marks the D form. Peptide text beside a SMILES is read from it. * marks the point of attachment. aIle = CC[C@@H](C)[C@H](N)C(=O)O; aThr = C[C@H](O)[C@H](N)C(=O)O; NMeL = CN[C@@H](CC(C)C)C(=O)O; dOrn = NCCC[C@@H](N)C(=O)O; dDab = NCC[C@@H](N)C(=O)O; Octanoyl = CCCCCCCC(=O)*; Orn = NCCC[C@H](N)C(=O)O; Dab = NCC[C@H](N)C(=O)O; Hexanoyl = CCCCCC(=O)*

Each molecule was assayed on E. coli. Conditions: not given.
Type: cell-based
Source text: Initially, a library of six lipid amide analogues was synthesized via cyclization between the side-chain epsilon -NH2 of an N-terminal L-lysine residue and the C-terminus of an L-serine residue.
Each analogue was acylated with a simple linear lipid, ranging from C3 to C8 in length (Figure S1). To further probe the potential of the amide isostere, five additional analogues were synthesized in which the D- or L-stereoisomer of cationic amino acids diaminobutyric acid (Dab), ornithine (Orn), or Lys were used as the N-terminal cyclization partner. Each analogue was acylated with an octanoyl tail and the subsequent effects of ring size and/or stereochemistry, as well as lipid length, determined by assessing antimicrobial activity against E. coli. Peptides were also screened against S. aureus.
Unfortunately, each analogue was unable to […]

| Structure (SMILES) | MIC [µg/mL] |
| --- | --- |
| CCCCCCCC(=O)N[C@H]1CC=CCNC(=O)[C@H](CO)NC(=O)[C@H](CO)NC(=O)[C@H]([C@H](C)CC)NC(=O)[C@H](CC(C)C)N(C)C1=O [S13, C8-Globomycin(RCM)] | > 200 |
| CCCCCC(=O)N[C@H]1CCCCNC(=O)[C@H](CO)NC(=O)[C@H](CO)NC(=O)[C@H]([C@H](C)CC)NC(=O)[C@H](CC(C)C)N(C)C1=O [S8, C6-Globomycin(N-Lys)] (Hexanoyl-K[NMeL][aIle]SS; lactam 1-C) | > 200 |
| CC[C@H](C)[C@H](NC(=O)[C@H](CC(C)C)NC)C(=O)N[C@@H](CO)C(=O)N[C@H](C(=O)NCC(=O)O)[C@@H](C)O [S2, Non-alloHN-Globomycin] (H-[NMeL]ISTG-OH) | > 200 |
| CCCCCCCC(=O)N(C)[C@@H](CC(C)C)C(=O)N[C@H](C(=O)N[C@@H](CO)C(=O)N[C@H](C(=O)NCC(=O)O)[C@H](C)O)[C@H](C)CC [S3, Octanoyl-Globomycin] (Octanoyl-[NMeL][aIle]S[aThr]G-OH) | > 200 |
| CCCCCCCC(=O)N(C)[C@@H](CC(C)C)C(=O)N[C@H](C(=O)N[C@@H](CO)C(=O)N[C@H](C(=O)NCC(=O)O)[C@@H](C)O)[C@@H](C)CC [S4, Non-alloOctanoyl-Globomycin] (Octanoyl-[NMeL]ISTG-OH) | > 200 |
| CC[C@@H](C)[C@H](NC(=O)[C@H](CC(C)C)NC)C(=O)N[C@@H](CO)C(=O)N[C@H](C(=O)NCC(=O)O)[C@H](C)O [S1, HN-Globomycin] (H-[NMeL][aIle]S[aThr]G-OH) | > 200 |

The remaining lines, values ahead:

| MIC [µg/mL] | Structure (SMILES) |
| --- | --- |
| > 200 | CCCCCCCC(=O)N[C@H]1CCNC(=O)[C@H](CO)NC(=O)[C@H](CO)NC(=O)[C@H]([C@H](C)CC)NC(=O)[C@H](CC(C)C)N(C)C1=O [S12, C8-Globomycin(N-Dab)] (Octanoyl-[Dab][NMeL][aIle]SS; lactam 1-C) |
| > 200 | CCCCCCCC(=O)N[C@H]1CCCCNC(=O)[C@H](CO)NC(=O)[C@H](CO)NC(=O)[C@H]([C@H](C)CC)NC(=O)[C@H](CC(C)C)N(C)C1=O [S10, C8-Globomycin(N-Lys)] (Octanoyl-K[NMeL][aIle]SS; lactam 1-C) |
| > 200 | CCCCCCCC(=O)N[C@@H]1CCCCNC(=O)[C@H](CO)NC(=O)[C@H](CO)NC(=O)[C@H]([C@H](C)CC)NC(=O)[C@H](CC(C)C)N(C)C1=O [S14, C8-Globomycin(N-D-Lys)] (Octanoyl-[dK][NMeL][aIle]SS; lactam 1-C) |
| > 200 | CCCCCCCC(=O)N[C@@H]1CCNC(=O)[C@H](CO)NC(=O)[C@H](CO)NC(=O)[C@H]([C@H](C)CC)NC(=O)[C@H](CC(C)C)N(C)C1=O [S16, C8-Globomycin(N-D-Dab)] (Octanoyl-[dDab][NMeL][aIle]SS; lactam 1-C) |
| > 200 | CCCCCCCC(=O)N[C@@H]1CCCNC(=O)[C@H](CO)NC(=O)[C@H](CO)NC(=O)[C@H]([C@H](C)CC)NC(=O)[C@H](CC(C)C)N(C)C1=O [S15, C8-Globomycin(N-D-Orn)] (Octanoyl-[dOrn][NMeL][aIle]SS; lactam 1-C) |
| > 200 | CCCCCCCC(=O)N[C@H]1CCCNC(=O)[C@H](CO)NC(=O)[C@H](CO)NC(=O)[C@H]([C@H](C)CC)NC(=O)[C@H](CC(C)C)N(C)C1=O [S11, C8-Globomycin(N-Orn)] (Octanoyl-[Orn][NMeL][aIle]SS; lactam 1-C) |

Same assay, conditions: against Gram-negative bacteria

| Structure (SMILES) | antimicrobial activity (in words) |
| --- | --- |
| CCCCCCCC(=O)N[C@H]1CC=CCNC(=O)[C@H](CO)NC(=O)[C@H](CO)NC(=O)[C@H]([C@H](C)CC)NC(=O)[C@H](CC(C)C)N(C)C1=O [S13, C8-Globomycin(RCM)] | void of antimicrobial activity |
